Experimental findings from patent US20230240991A1, “PROTEOPHOSPHOLIPOSOMES HAVING HDL-TYPE VESICLES” (priority 2019, published 2023) are described below.

The subject of the experiment is intact washed human platelets. In words: [3H]PAF radioligand binding to intact washed human platelets after preincubation with plasma fractions (FIG. 1).

Method: Washed intact human thrombocytes are protected with plasma fractions from healthy volunteers (n=3, means, ±1 S.D.).
The thrombocytes are further preincubated with dialyzed, delipidated plasma proteins (0.36 mg/ml), with purified VLDL-fractions (0.9 mg/ml), with IDL (0.02 mg/ml), with HDL (0.5 mg/ml) or with delipidated HSA (0.25%).
Washed thrombocytes are tested in the presence of thioether-2-acyl-glycero-phosphatidylcholines (500 nM) compared to controls.

As to “alkyl-acetyl-sn-glycero-phosphocholines [PAF]”, where the note is “500 nM unlabeled PAF, n=3, control 22±3 fmol”, the “total [3H]PAF binding” value was 6±2 fmol per 10^8 cells/ml.

On to “thioether-2-acyl-glycero-phosphatidylcholines [Thio-GPC]”, for which the “total binding of [3H]PAF” value (500 nM Thio-GPC, washed thrombocytes, compared to controls) was “do not at all change”.
